Results on 1 substance are retold here after patent US20060166867A1, “Novel conjugates of polysaccharides and uses thereof” (priority 2003, published 2006).

Holding throughout (experiment): Gentamycin Disk Diffusion test
Settings in all cases: disk method

Test [1] has as its system A. baumannii-amikacin^s, meropenem^s. The format is cell-based, Acinetobacter baumannii.
Test [2] deals with A. baumannii-amikacin^r, meropenem^r. It counts as cell-based, Acinetobacter baumannii.
The subject of another test is S. aureus MSSA. The format is cell-based, Staphylococcus aureus.
For test [3], the system named is Enterobacter cloacae W25161^r. It counts as cell-based.
In another test the test system is E. Coli B3095141^r. The format is cell-based, Escherichia coli.
Another test has as its system E. Coli-ESBL negative. The format is cell-based, Escherichia coli.
The next test concerns S. epidermidis MSSE. It counts as cell-based, Staphylococcus epidermidis.
A further test relates to S. epidermidis MRSE. It counts as cell-based, Staphylococcus epidermidis.
For another test, the system named is E. Coli-ESBL positive. The format is cell-based, Escherichia coli.
In a further test the test system is A. baumannii R16998^r. The format is cell-based, Acinetobacter baumannii.
Test [4] concerns K. pneumoniae-ESBL negative. It counts as cell-based, Klebsiella pneumoniae.
For test [5], the system named is Enterococcus faecalis-vancomycin^r. The format is cell-based.
Test [6] deals with K. pneumoniae-ESBL positive. The format is cell-based, Klebsiella pneumoniae.
Another test has as its system Enterobacter aerogenes. The format is cell-based.
The test system of a further test is S. aureus MRSA. The format is cell-based, Staphylococcus aureus.

In the case of Gentamycin, the “Gentamycin (disk): resistance or sensitivity of the tested strain” value (from here on “Gentamycin (disk)”) in [1] was “r (resistance of the tested strain (disk method diameter ≦12 millimeters, equivalent to a MIC ≧8 mg/liter))”; in test [2] it was “r (resistance of the tested strain (disk method diameter ≦12 millimeters, equivalent to a MIC ≧8 mg/liter))”; with S. aureus MSSA, “r (resistance of the tested strain (disk method diameter ≦12 millimeters, equivalent to a MIC ≧8 mg/liter))”; in test [3], “r (resistance of the tested strain (disk method diameter ≦12 millimeters, equivalent to a MIC ≧8 mg/liter))”; in the test on E. Coli B3095141^r, “r (resistance of the tested strain (disk method diameter ≦12 millimeters, equivalent to a MIC ≧8 mg/liter))”; with E. Coli-ESBL negative, “s (sensitivity of the tested strain (disk method diameter ≧15 millimeters, equivalent to a MIC ≦4 mg/liter))”. Also, the “Gentamycin (disk)” value is “s (sensitivity of the tested strain (disk method diameter ≧15 millimeters, equivalent to a MIC ≦4 mg/liter))” with S. epidermidis MSSE; “s (sensitivity of the tested strain (disk method diameter ≧15 millimeters, equivalent to a MIC ≦4 mg/liter))” in the test on S. epidermidis MRSE; “r (resistance of the tested strain (disk method diameter ≦12 millimeters, equivalent to a MIC ≧8 mg/liter))” with E. Coli-ESBL positive; “r (resistance of the tested strain (disk method diameter ≦12 millimeters, equivalent to a MIC ≧8 mg/liter))” with A. baumannii R16998^r; “s (sensitivity of the tested strain (disk method diameter ≧15 millimeters, equivalent to a MIC ≦4 mg/liter))” in [4]; “r (resistance of the tested strain (disk method diameter ≦12 millimeters, equivalent to a MIC ≧8 mg/liter))” in test [5]. In addition, the “Gentamycin (disk)” value in test [6] is listed as “r (resistance of the tested strain (disk method diameter ≦12 millimeters, equivalent to a MIC ≧8 mg/liter))”; with Enterobacter aerogenes it was “r (resistance of the tested strain (disk method diameter ≦12 millimeters, equivalent to a MIC ≧8 mg/liter))”; in the test with S. aureus MRSA, “s (sensitivity of the tested strain (disk method diameter ≧15 millimeters, equivalent to a MIC ≦4 mg/liter))”.
